Reference: patent publication US12252493B2, “Imidazo[1,2-c]pyrimidine derivatives as PRC2 inhibitors for treating cancer” (Mirati Therapeutics, Inc., priority 2019, dated 2025)
Like-named read-outs stand apart in the source and are kept apart here.

Assays:
[1] = tested on: PRC2-mediated histone H3 methylation (H3 Lys27 trimethylation) in Pfeiffer cells expressing mutant EZH2 (A677G); assay: Tri-Methyl Histone H3 (Lys 27) sandwich ELISA in Pfeiffer cells; format: cell-based, human; conditions: Pfeiffer cells, 96 hours incubation, ELISA, read-out: IC50, Inhibition of EZH2-mediated Histone H3 Trimethylation
Text: The Pfeiffer cell line was established from a […] from a patient having metastatic diffuse large B-cell lymphoma (DLBCL). This cell line expresses a mutant form of the EZH2 enzyme (A677G) that results in enhanced EZH2 activity leading to increased methylation of histone H3 Lys27. Increased trimethylation of histone H3 Lys27 is believed to be implicated in tumorgenesis and poor clinical prognosis in lymphomas (McCabe et al., (2012) Nature 492:108-112).
Inhibition of PRC2-mediated histone H3 methylation by compounds of Formula (I) was measured by ELISA using a Tri-Methyl Histone H3 (Lys 27) Sandwich ELISA Kit (Cell Signaling Tech #7866C) in accordance with the manufacturer's instructions. Briefly, Pfeiffer cells were cultured in RPMI medium supplemented with 10% fetal bovine serum and 1% penicillin and 1% streptomycin in 96 well culture plates at 37° C. to a density of 8000 cells/90 μl/well and the cells were harvested. A series of 3-fold serial dilutions of each test compound of Formula (I) were prepared in RPMI medium and added to the cells at final concentrations ranging from 1 μM to 0.15 nM. The plates were incubated at 37° C. for 96 hours.
After incubation, the cells were pelleted by centrifugation in a pre-cooled 4° C. rotor at 1,100 rpm for 10 min and the supernatant was removed by aspiration. The cell pellet was resuspended in 55 μl of Lysis Buffer (0.4M HCl) and incubated on ice with periodic shaking for 30 minutes. The lysed cells were subjected to centrifugation at 4,200 rpm for 10 min at 4° C. and the supernatant containing acid-soluble proteins was collected and the remainder discarded. The acid-soluble proteins were brought to a neutral pH by the addition of 20 μl of Neutralization Buffer (1 M Sodium phosphate, dibasic (pH 12.5), 2.5 mM DTT and 1 mM PMSF) and the neutralized lysates were analyzed by ELISA.
A 65 μl aliquot of each cell lysate was added to a well of a microwell strip, the microwells were sealed using tape and incubated either at 37° C. for two hours or at 4° C. overnight. After incubation, the tape was removed at the microwells were washed four times using 200 μl of 1× Wash Buffer. To each washed microwell, a 100 μl aliquot of an anti-trimethyl histone H3 Lys27 Detection Antibody solution was added and the microwells were incubated at 37° C. for one hour. The Detection Antibody solution was removed by aspiration and the wells were washed four times each using 200 μl of 1× Wash Buffer.
A 100 μl aliquot of an HRP-linked secondary antibody was added to each well, the wells were sealed with tape and incubated at 37° C. for 30 min. The HRP-linked secondary antibody solution was removed by aspiration and the wells were washed four times using 200 μl of 1× Wash Buffer. A 100 μl aliquot of a TMB substrate was added to each well, the wells were sealed with tape and incubated at 37° C. for 10 min or 25° C. for 30 min. The reaction was stopped by the addition of 100 μl aliquot of a STOP solution and the plate was shaken briefly. The degree of histone H3 trimethylation was determined using a spectrophotometric readout by measuring the absorbance at 450 nm and then calculating the amount of trimethylated histone H3. Key: A=≤250 nM; B=>250 nM-≤500 nM; and C=>500 nM-≤5 μM.

[2] = target: purified human, His-tagged PRC2 complex (Homo sapiens (Human), UniProt O75530); assay: Hot Spot HMT assay of PRC2 enzymatic activity (tritiated methyl transfer from SAM to core histone); format: biochemical; conditions: 10 nM purified PRC2 complex, 0.05 mg/ml core histone H3, 1 uM 3H-SAM, 1 hr at 30° C.; read-out: IC50, Inhibition of PRC2-mediated Enzymatic Activity
Sequence of purified human, His-tagged PRC2 complex (Q15910 whole entry): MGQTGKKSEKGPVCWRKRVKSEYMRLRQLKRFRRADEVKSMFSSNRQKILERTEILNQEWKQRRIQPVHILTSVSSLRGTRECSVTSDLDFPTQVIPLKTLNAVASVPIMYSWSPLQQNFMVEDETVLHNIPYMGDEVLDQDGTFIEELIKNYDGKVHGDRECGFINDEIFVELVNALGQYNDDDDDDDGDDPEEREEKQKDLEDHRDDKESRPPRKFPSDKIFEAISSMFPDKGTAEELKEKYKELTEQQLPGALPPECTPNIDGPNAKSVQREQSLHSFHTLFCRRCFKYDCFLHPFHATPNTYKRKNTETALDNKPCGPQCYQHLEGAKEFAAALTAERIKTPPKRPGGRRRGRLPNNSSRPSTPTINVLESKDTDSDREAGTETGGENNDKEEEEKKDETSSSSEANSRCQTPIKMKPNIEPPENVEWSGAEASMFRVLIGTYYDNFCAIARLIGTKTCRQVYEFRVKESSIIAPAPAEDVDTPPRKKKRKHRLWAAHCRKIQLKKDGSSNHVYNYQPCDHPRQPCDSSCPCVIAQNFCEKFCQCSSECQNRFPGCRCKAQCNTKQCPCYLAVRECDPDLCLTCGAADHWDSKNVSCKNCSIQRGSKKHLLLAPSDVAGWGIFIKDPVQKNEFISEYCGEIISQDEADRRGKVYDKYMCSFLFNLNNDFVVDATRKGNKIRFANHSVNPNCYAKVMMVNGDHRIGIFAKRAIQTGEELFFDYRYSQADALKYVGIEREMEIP
Sequence of purified human, His-tagged PRC2 complex (O75530 whole entry): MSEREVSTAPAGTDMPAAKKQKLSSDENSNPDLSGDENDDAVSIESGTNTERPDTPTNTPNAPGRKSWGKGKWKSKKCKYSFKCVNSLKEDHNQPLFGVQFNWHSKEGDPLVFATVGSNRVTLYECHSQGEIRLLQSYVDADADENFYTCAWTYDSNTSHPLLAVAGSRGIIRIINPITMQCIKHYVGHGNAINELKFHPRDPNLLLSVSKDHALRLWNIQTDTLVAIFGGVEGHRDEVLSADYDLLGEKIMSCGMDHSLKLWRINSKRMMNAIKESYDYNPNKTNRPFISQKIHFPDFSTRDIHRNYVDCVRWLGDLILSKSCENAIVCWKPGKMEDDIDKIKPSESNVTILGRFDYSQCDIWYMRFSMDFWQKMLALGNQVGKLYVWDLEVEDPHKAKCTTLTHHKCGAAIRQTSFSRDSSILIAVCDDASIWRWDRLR
Sequence of purified human, His-tagged PRC2 complex (Q15022 whole entry partner): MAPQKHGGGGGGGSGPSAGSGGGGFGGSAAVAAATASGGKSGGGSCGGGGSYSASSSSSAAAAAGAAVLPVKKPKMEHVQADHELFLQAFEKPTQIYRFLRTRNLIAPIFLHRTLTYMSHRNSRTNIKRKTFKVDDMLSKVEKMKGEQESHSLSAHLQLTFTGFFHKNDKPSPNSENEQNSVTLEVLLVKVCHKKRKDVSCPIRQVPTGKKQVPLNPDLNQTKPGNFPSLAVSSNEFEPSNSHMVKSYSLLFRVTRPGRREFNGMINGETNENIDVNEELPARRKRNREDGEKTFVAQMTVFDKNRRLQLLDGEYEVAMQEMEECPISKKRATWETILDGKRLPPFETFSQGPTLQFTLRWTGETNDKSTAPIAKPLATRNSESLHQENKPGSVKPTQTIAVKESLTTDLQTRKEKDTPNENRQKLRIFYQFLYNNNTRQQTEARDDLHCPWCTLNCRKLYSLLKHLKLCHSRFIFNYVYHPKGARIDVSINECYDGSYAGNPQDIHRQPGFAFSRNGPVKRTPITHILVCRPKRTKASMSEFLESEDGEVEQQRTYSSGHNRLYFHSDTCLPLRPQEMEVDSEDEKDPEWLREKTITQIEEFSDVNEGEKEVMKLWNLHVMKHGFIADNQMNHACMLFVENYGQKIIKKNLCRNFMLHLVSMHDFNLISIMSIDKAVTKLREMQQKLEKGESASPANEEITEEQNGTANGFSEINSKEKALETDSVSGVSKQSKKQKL
Sequence of purified human, His-tagged PRC2 complex (Q6ZN18 whole entry partner): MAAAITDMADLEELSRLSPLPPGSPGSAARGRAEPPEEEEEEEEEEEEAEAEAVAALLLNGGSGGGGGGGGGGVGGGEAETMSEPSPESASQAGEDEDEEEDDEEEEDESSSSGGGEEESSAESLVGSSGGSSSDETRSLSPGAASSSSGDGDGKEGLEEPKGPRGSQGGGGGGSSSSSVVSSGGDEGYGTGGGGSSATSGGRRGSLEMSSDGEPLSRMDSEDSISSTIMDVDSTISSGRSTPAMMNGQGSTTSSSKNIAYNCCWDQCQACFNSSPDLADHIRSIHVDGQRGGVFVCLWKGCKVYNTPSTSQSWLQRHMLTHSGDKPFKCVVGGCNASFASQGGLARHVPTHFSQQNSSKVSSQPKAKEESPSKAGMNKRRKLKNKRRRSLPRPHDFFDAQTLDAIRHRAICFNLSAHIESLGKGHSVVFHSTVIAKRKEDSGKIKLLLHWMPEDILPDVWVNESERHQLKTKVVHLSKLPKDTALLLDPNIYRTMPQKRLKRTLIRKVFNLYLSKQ
Sequence of purified human, His-tagged PRC2 complex (Q09028 whole entry partner): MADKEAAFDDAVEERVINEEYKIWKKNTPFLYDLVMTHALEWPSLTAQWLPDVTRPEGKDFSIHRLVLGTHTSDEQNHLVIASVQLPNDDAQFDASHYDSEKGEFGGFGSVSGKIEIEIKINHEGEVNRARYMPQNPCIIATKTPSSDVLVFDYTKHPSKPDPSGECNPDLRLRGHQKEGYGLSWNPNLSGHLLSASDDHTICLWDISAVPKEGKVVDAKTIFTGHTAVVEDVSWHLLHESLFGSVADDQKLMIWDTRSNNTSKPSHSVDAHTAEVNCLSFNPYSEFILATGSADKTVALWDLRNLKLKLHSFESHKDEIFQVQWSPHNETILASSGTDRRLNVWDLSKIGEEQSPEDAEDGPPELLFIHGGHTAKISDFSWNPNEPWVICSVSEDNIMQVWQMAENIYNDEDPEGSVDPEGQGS
Description: Ten-point dose-response curves for compounds of the present invention were determined using a Hot Spot HMT assay (Reaction Biology Corp; see Horiuchi et al., Assay Drug Dev Technol. (2013) 4: 227-236 doi: 10.1089/adt.2012.480). The assay uses purified human, His-tagged PRC2 complex, including N-terminal His-tagged EZH2 enzyme, N-terminal Flag-tagged embryonic ectoderm development protein (EED), N-terminal His-tagged suppressor of zeste 12 (SUZ12), N-terminal His-tagged AEBP2, and N-terminal His-tagged RbAp48. In this assay, the transfer of the tritiated methyl group from radiolabeled S-adenosyl methionine (SAM) to purified core histone protein by EZH2 is quantitated after filtration to determine the activity of the core PRC2 complex in the presence and absence of compound.
Briefly, compounds of the present invention were solubilized in DMSO and a series of 10, three-fold serial dilutions were made for each compound in 15% DMSO. The initial starting concentration for the serial dilutions of each compound was 1.0 μM. Control samples lacking compound, EZH2 enzyme or various reaction components also were prepared and processed in parallel with compound test samples. SAH (S-(5-adenosyl)-L-homocysteine) was used as a positive control for assay validation.
An aliquot of each serial dilution of test compound was added to deep 384 well plate using Acoustic Technology instrument (Echo 550, LabCyte) containing reaction buffer (50 mM Tris-HCl (pH 8.)), 0.01% Brij35, 1 mM EDTA, 1 mM DTT, 1 mM PMSF and 1% DMSO), 10 nM purified PRC2 complex and 0.05 mg/ml core histone H3 in a 5 μl volume. The reaction was mixed gently and then pre-incubated for 20 min at 30° C. The enzymatic reaction was initiated by adding 1 uM S-Adenosyl-L-[methyl ^3H]methionine and incubated for 1 hr at 30° C. After 1 hr, the reaction product was detected using a filter binding method and the amount of tritiated H3 core histone was quantitated using a scintillation counter. The IC50 value for each compound was determined from each 10-point dose-response curve using GraphPad Prism software and the results for exemplary compounds of Formula (I) are shown in Table 5. Key: A=≤250 nM; B=>250 nM—≤500 nM; and C=>500 nM—≤2 μM.

[3] = tested on: Karpas 422 cells expressing mutant EZH2 (Y641N); assay: Karpas 422 cell viability (Cell Titre Glo) assay; format: cell-based, human; conditions: CTG viability, time point (Day 4, Day 7 or Day 11) not given, read-out: IC50, Inhibiting Proliferation of Cells Expressing an Activating Mutant Form of EZH2
Description: Karpas 422 cell line is a human B cell non-Hodgkin's lymphoma cell line established from a patient having DLBCL. This EZH2 heterozygotic cell line expresses a mutant form of EZH2 enzyme (Y641N) that increases histone H3 methylation and this mutation has been implicated in the tumorgenesis of lymphomas, such as DLBCL.
Karpas 422 cells (PHE cat no., 06101702) were cultured in RPMI medium supplemented with 20% fetal bovine serum and 1% penicillin/1% streptomycin and plated at a density of 1000 cells/90 μl/well in 96 well white assay plates. A dose response curve for compounds of the present invention was determined by adding a 10 μl aliquot of stock solutions of varying concentrations of compounds to the same medium in each well, over a concentration range of 10 μM using 3-fold dilutions to a final concentration of 1.5 nM. The plates were incubated at 37° C. for predetermined time periods, Day 4, Day 7, or Day 11, and the viability of the cells was measured using a CTG assay kit (Cell Titre Glo; Promega cat. no G7573) on Day 4 and Day 7 in accordance with the manufacturer's instructions.
For the viability assay for the Day 11 plates, the plates were subjected to centrifugation at 1100 rpm for five minutes on Day 7 and the supernatant was removed by aspiration. The cells were resuspended in 90 μl aliquot of the appropriate growth medium lacking the compound followed by addition of 10 μl of a 10× stock of the same compound at the same concentration. The viability of the Day 11 cells was measured using the CTG assay kit described above in accordance with the manufacturer's instructions. The IC50 values for each compound at each predetermined time point were calculated using Graph pad PRISM software and the results are shown in Table 7. Key: A=≤250 nM; B=>250 nM-≤500 nM; C=>500 nM-≤5 μM and N.D.=not determined.

SMILES	IC50 ([1]; Homo sapiens) [nM]	IC50 [2] [nM]	IC50 ([3]; Homo sapiens) [nM]	IC50 [1] [nM]	IC50 [3] [nM]
Cc1cc(-c2cnc(NCc3c(F)ccc4c3CCO4)n3cc(-c4nnco4)nc23)n(C)n1 [Example 44, 8-(1,3-dimethyl-1H-pyrazol-5-yl)-N-((5-fluoro-2,3-dihydrobenzofuran-4-yl)methyl)-2-(1,3,4-oxadiazol-2-yl)imidazo[1,2-c]pyrimidin-5-amine]	< 250	< 250	< 250		
Cc1cc(-c2cnc(NCc3c(F)ccc4c3CCO4)n3cc(CN4CC(O)C4)nc23)n(C)n1 [Example 31, 1-((8-(1,3-dimethyl-1H-pyrazol-5-yl)-5-(((5-fluoro-2,3-dihydrobenzofuran-4-yl)methyl)amino)imidazo[1,2-c]pyrimidin-2-yl)methyl)azetidin-3-ol]	500 to 5000	500 to 2000	500 to 5000		
Cc1cc(C(=O)N(C)C)ncc1-c1cnc(NCc2c(F)ccc3c2CCO3)n2cc(C(C)N)nc12 (stereo not drawn) [Example 35, 5-(2-(1-aminoethyl)-5-(((5-fluoro-2,3-dihydrobenzofuran-4-yl)methyl)amino)imidazo[1,2-c]pyrimidin-8-yl)-N,N,4-trimethylpicolinamide]	< 250	< 250	< 250		
COCc1cn2c(NCc3c(F)ccc4c3CCO4)ncc(-c3cc(C)nn3C)c2n1 [Example 9, 8-(1,3-dimethyl-1H-pyrazol-5-yl)-N-((5-fluoro-2,3-dihydrobenzofuran-4-yl)methyl)-2-(methoxymethyl)imidazo[1,2-c]pyrimidin-5-amine]	500 to 5000	500 to 2000	250 to 500		
Cc1cc(-c2cnc(NCc3c(F)ccc4c3CCO4)n3cc(C(C)N)nc23)n(C)n1 (single isomer, unassigned) [Example 12, 2-(1-aminoethyl)-8-(1,3-dimethyl-1H-pyrazol-5-yl)-N-((5-fluoro-2,3-dihydrobenzofuran-4-yl)methyl)imidazo[1,2-c]pyrimidin-5-amine]		< 250		< 250	< 250
Cc1cc(-c2cnc(NCc3c(F)ccc4c3CCO4)n3cc(-c4cnco4)nc23)n(C)n1 [Example 45, 8-(1,3-dimethyl-1H-pyrazol-5-yl)-N-((5-fluoro-2,3-dihydrobenzofuran-4-yl)methyl)-2-(oxazol-5-yl)imidazo[1,2-c]pyrimidin-5-amine]	250 to 500	< 250	< 250		
Cc1ncccc1-c1cnc(NCc2c(F)ccc3c2CCO3)n2cc(C(C)N)nc12 (stereo not drawn) [Example 39, 2-(1-aminoethyl)-N-((5-fluoro-2,3-dihydrobenzofuran-4-yl)methyl)-8-(2-methylpyridin-3-yl)imidazo[1,2-c]pyrimidin-5-amine]	< 250	< 250	< 250		
Cc1cc(-c2cnc(NCc3c(F)ccc4c3CCO4)n3cc(CN)nc23)n(C)n1 [Example 10, 2-(aminomethyl)-8-(1,3-dimethyl-1H-pyrazol-5-yl)-N-((5-fluoro-2,3-dihydrobenzofuran-4-yl)methyl)imidazol[1,2-c]pyramidin-5-amine]	< 250	< 250	< 250		
Cc1cc(S(C)(=O)=O)ccc1-c1cnc(NCc2c(F)ccc3c2CCO3)n2cc(CN)nc12 [Example 13, 2-(aminomethyl)-N-((5-fluoro-2,3-dihydrobenzofuran-4-yl)methyl)-8-(2-methyl-4-(methylsulfonyl)phenyl)imidazo[1,2-c]pyrimidin-5-amine]	< 250	< 250	< 250		
NCc1cn2c(NCc3c(F)ccc4c3CCO4)ncc(-c3cc(F)cc(F)c3)c2n1 [Example 16, 2-(aminomethyl)-8-(3,5-difluorophenyl)-N-((5-fluoro-2,3-dihydrobenzofuran-4-yl)methyl)imidazo[1,2-c]pyrimidin-5-amine]	500 to 5000	500 to 2000	500 to 5000		
Cn1nccc1-c1cnc(NCc2c(F)ccc3c2CCO3)n2cc(CN)nc12 [Example 18, 2-(aminomethyl)-N-((5-fluoro-2,3-dihydrobenzofuran-4-yl)methyl)-8-(1-methyl-1H-pyrazol-5-yl)imidazo[1,2-c]pyrimidin-5-amine]	< 250	< 250	< 250		
Cn1nc(C(F)(F)F)cc1-c1cnc(NCc2c(F)ccc3c2CCO3)n2cc(CN)nc12 [Example 15, 2-(aminomethyl)-N-((5-fluoro-2,3-dihydrobenzofuran-4-yl)methyl)-8-(1-methyl-3-(trifluoromethyl)-1H-pyrazol-5-yl)imidazo[1,2-c]pyrimidin-5-amine]	< 250	250 to 500	< 250		
